Measurements from US6355799B1, “Substituted benzene compounds, process for their preparation, and herbicidal and defoliant compositions containing them” (ISK Americas Incorporated, priority 1997, dated 2002).

How the values were obtained:
Assay type in all cases: in vivo
[1] = test system: barnyardgrass (Echinochloa crus-galli, ECHCG); assay: Post-emerge test, greenhouse herbicide activity screening; settings: post-emerge, phytotoxicity rating 0-100 at 14 days after application
Summary of the method: (§1)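 Fourteen days after spraying, crop and weed injury was graded visually from 0, no effect, to 100, every plant dead. Test substances were dissolved in acetone and applied at 15–1000 g ai/ha with a flat-fan nozzle. Application was either pre-emergence, one day after sowing, or post-emergence at the 2–3 leaf stage.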

[2] = test system: lambsquarters (Chenopodium album, CHEAL); assay: as above; settings: post-emerge, phytotoxicity rating 0-100 at 14 days after application
Summary of the method: as §1

[3] = test system: ivyleaf morningglory (Ipomoea hederacea, IPOHE); assay: as above; settings: post-emerge, phytotoxicity rating 0-100 at 14 days after application
Summary of the method: as §1

[4] = test system: sicklepod (Cassia obtusifolia, CASOB); assay: as above; settings: post-emerge, phytotoxicity rating 0-100 at 14 days after application
Summary of the method: as §1

[5] = test system: large crabgrass (Digitaria sanguinalis, DIGSA); assay: as above; settings: post-emerge, phytotoxicity rating 0-100 at 14 days after application
Summary of the method: as §1

[6] = test system: green foxtail (Setaria viridis, SETVI); assay: as above; settings: post-emerge, phytotoxicity rating 0-100 at 14 days after application
Summary of the method: as §1

[7] = test system: velvetleaf (Abutilon theophrasti, ABUTH); assay: as above; settings: post-emerge, phytotoxicity rating 0-100 at 14 days after application
Summary of the method: as §1

[8] = test system: redroot pigweed (Amaranthus retroflexus, AMARE); assay: as above; settings: post-emerge, phytotoxicity rating 0-100 at 14 days after application
Summary of the method: as §1

[9] = test system: barnyardgrass (Echinochloa crus-galli, ECHCG); assay: Pre-emerge test, greenhouse herbicide activity screening; settings: rating scale 0-100, 14 days after application
Summary of the method: (§2)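 Plants grown in 10 cm pots of sandy loam mix received acetone-dissolved compounds through a moving flat-fan nozzle. Doses ranged from 15 to 1000 g ai/ha. Pre-emerge pots were seeded one day earlier, post-emerge pots 8–21 days earlier. Fourteen days on, each pot was graded 0–100 for damage.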

[10] = test system: lambsquarters (Chenopodium album, CHEAL); assay: as above; settings: rating scale 0-100, 14 days after application
Summary of the method: as §2

[11] = test system: ivyleaf morningglory (Ipomoea hederacea, IPOHE); assay: as above; settings: rating scale 0-100, 14 days after application
Summary of the method: as §2

[12] = test system: sicklepod (Cassia obtusifolia, CASOB); assay: as above; settings: rating scale 0-100, 14 days after application
Summary of the method: as §2

[13] = test system: large crabgrass (Digitaria sanguinalis, DIGSA); assay: as above; settings: rating scale 0-100, 14 days after application
Summary of the method: as §2

[14] = test system: green foxtail (Setaria viridis, SETVI); assay: as above; settings: rating scale 0-100, 14 days after application
Summary of the method: as §2

[15] = test system: johnsongrass (Sorghum halepense, SORHA); assay: as above; settings: rating scale 0-100, 14 days after application
Summary of the method: as §2

[16] = test system: velvetleaf (Abutilon theophrasti, ABUTH); assay: as above; settings: rating scale 0-100, 14 days after application
Summary of the method: as §2

[17] = test system: upland rice (Oryza sp., var. Tebonnet, RICE); assay: Pre-emerge test, crop safety; settings: rating scale 0-100, 14 days after application
Summary of the method: (§3)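 Applied at 15–1000 g ai/ha from acetone in 187 l/ha spray volume. Post-emergence applications included 0.25% v/v non-ionic surfactant and reached plants sown 8–21 days before. Pre-emergence applications were incorporated by surface watering. Efficacy or crop damage was rated on a 0–100 scale after 14 days.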

[18] = test system: field corn (Zea mays L., var. Dekalb 535, CORN); assay: Pre-emerge test, crop safety; settings: rating scale 0-100, 14 days after application
Summary of the method: as §3

[19] = test system: redroot pigweed (Amaranthus retroflexus, AMARE); assay: Pre-emerge test, greenhouse herbicide activity screening; settings: rating scale 0-100, 14 days after application
Summary of the method: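 Herbicidal damage is scored 0 (none) to 100 (complete plant death) two weeks after a simulated field spray. Rates span 15–1000 g ai/ha, delivered in acetone at 187 l/ha. For post-emergence treatments, plants have 2–3 leaves and the spray carries 0.25% v/v non-ionic surfactant.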

[20] = test system: upland rice (Oryza sp., var. Tebonnet, RICE); assay: Post-emerge test, crop safety; settings: post-emerge, crop damage rating 0-100 at 14 days after application
Summary of the method: (§4)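 Each test used a mechanized track sprayer delivering 187 l/ha of acetone solution at 15–1000 g ai/ha. Post-emerge foliage at 2–3 leaves was treated with added 0.25% v/v non-ionic surfactant and bottom-watered only. Injury was assessed on day 14, where 100 means total kill.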

[21] = test system: field corn (Zea mays L., var. Dekalb 535, CORN); assay: Post-emerge test, crop safety; settings: post-emerge, crop damage rating 0-100 at 14 days after application
Summary of the method: as §4

COc1c(Cl)cc(F)c(N2C(=O)c3ccccc3C2=O)c1NC(=O)c1ccc(F)cc1F [13-4]
Post-emerge Herbicidal Activity ECHCG ([1]; 63 g ai/ha): 10 | Post-emerge Herbicidal Activity ECHCG ([1]; 250 g ai/ha): 30 | Post-emerge Herbicidal Activity CHEAL ([2]; 63 g ai/ha): 95 | Post-emerge Herbicidal Activity CHEAL ([2]; 250 g ai/ha): 100 | Post-emerge Herbicidal Activity IPOHE ([3]; 63 g ai/ha): 85 | Post-emerge Herbicidal Activity IPOHE ([3]; 250 g ai/ha): 85 | Post-emerge Herbicidal Activity CASOB ([4]; 63 g ai/ha): 95 | Post-emerge Herbicidal Activity CASOB ([4]; 250 g ai/ha): 100 | Post-emerge Herbicidal Activity DIGSA ([5]; 63 g ai/ha): 0 | Post-emerge Herbicidal Activity DIGSA ([5]; 250 g ai/ha): 10 | Post-emerge Herbicidal Activity SETVI ([6]; 63 g ai/ha): 20 | Post-emerge Herbicidal Activity SETVI ([6]; 250 g ai/ha): 40 | Post-emerge Herbicidal Activity ABUTH ([7]; 63 g ai/ha): 100 | Post-emerge Herbicidal Activity ABUTH ([7]; 250 g ai/ha): 100 | Post-emerge Herbicidal Activity AMARE ([8]; 63 g ai/ha): 100 | Post-emerge Herbicidal Activity AMARE ([8]; 250 g ai/ha): 95 | Pre-emerge herbicidal activity, phytotoxicity rating ECHCG ([9]; 63 g ai/ha): 0 | Pre-emerge herbicidal activity, phytotoxicity rating ECHCG ([9]; 250 g ai/ha): 30 | Pre-emerge herbicidal activity, phytotoxicity rating CHEAL ([10]; 63 g ai/ha): 100 | Pre-emerge herbicidal activity, phytotoxicity rating CHEAL ([10]; 250 g ai/ha): 100 | Pre-emerge herbicidal activity, phytotoxicity rating IPOHE ([11]; 63 g ai/ha): 10 | Pre-emerge herbicidal activity, phytotoxicity rating IPOHE ([11]; 250 g ai/ha): 90 | Pre-emerge herbicidal activity, phytotoxicity rating CASOB ([12]; 63 g ai/ha): 0 | Pre-emerge herbicidal activity, phytotoxicity rating CASOB ([12]; 250 g ai/ha): 50 | Pre-emerge herbicidal activity, phytotoxicity rating DIGSA ([13]; 63 g ai/ha): 0 | Pre-emerge herbicidal activity, phytotoxicity rating DIGSA ([13]; 250 g ai/ha): 90 | Pre-emerge herbicidal activity, phytotoxicity rating SETVI ([14]; 63 g ai/ha): 30 | Pre-emerge herbicidal activity, phytotoxicity rating SETVI ([14]; 250 g ai/ha): 90 | Pre-emerge herbicidal activity, phytotoxicity rating SORHA ([15]; 63 g ai/ha): 10 | Pre-emerge herbicidal activity, phytotoxicity rating SORHA ([15]; 250 g ai/ha): 40 | Pre-emerge herbicidal activity, phytotoxicity rating ABUTH ([16]; 63 g ai/ha): 90 | Pre-emerge herbicidal activity, phytotoxicity rating ABUTH ([16]; 250 g ai/ha): 100 | Pre-emerge phytotoxicity rating, crop damage RICE ([17]; 63 g ai/ha): 0 | Pre-emerge phytotoxicity rating, crop damage RICE ([17]; 250 g ai/ha): 30 | Pre-emerge phytotoxicity rating, crop damage CORN ([18]; 63 g ai/ha): 0 | Pre-emerge phytotoxicity rating, crop damage CORN ([18]; 250 g ai/ha): 15 | Pre-emerge herbicidal activity, phytotoxicity rating AMARE ([19]; 63 g ai/ha): 60 | Pre-emerge herbicidal activity, phytotoxicity rating AMARE ([19]; 250 g ai/ha): 100 | Post-emerge Herbicidal Activity RICE ([20]; 63 g ai/ha): 30 | Post-emerge Herbicidal Activity RICE ([20]; 250 g ai/ha): 50 | Post-emerge Herbicidal Activity CORN ([21]; 63 g ai/ha): 5 | Post-emerge Herbicidal Activity CORN ([21]; 250 g ai/ha): 5
